# Paper PMC10682911 (Saudi Pharmaceutical Journal : SPJ, 2023)
# Where “and” joins values, the source holds several entries; their conditions need not be identical. Equal entries are not always repeated.
# Key:
# hCA IX = hCA IX (Homo sapiens, UniProt Q16790); experiment: biochemical; conditions: for Selectivity analysis hCA II/IX / Selectivity analysis hCA I/IX: SI; for Selectivity analysis hCA II/IX: hCA IX over hCA II (ratio of Ki); for Ki: Ki hCA IX, stopped-flow technique, mean from 3 different assays; for Selectivity analysis hCA I/IX: hCA IX over hCA I (ratio of Ki)
# hCA I = hCA I (Homo sapiens, UniProt P00915); experiment: hCA I inhibition, stopped-flow technique; assay type: biochemical
# hCA XII = hCA XII (Homo sapiens, UniProt O43570); experiment: hCA XII inhibition, stopped-flow technique; assay type: biochemical; conditions: for Selectivity analysis hCA I/XII / Selectivity analysis hCA II/XII: SI; for Selectivity analysis hCA I/XII: hCA XII over hCA I (ratio of Ki); for Selectivity analysis hCA II/XII: hCA XII over hCA II (ratio of Ki)
# hCA II = hCA II (Homo sapiens, UniProt P00918); experiment: hCA II inhibition, stopped-flow technique; assay type: biochemical
# hCA XII, sequence (O43570 25-354): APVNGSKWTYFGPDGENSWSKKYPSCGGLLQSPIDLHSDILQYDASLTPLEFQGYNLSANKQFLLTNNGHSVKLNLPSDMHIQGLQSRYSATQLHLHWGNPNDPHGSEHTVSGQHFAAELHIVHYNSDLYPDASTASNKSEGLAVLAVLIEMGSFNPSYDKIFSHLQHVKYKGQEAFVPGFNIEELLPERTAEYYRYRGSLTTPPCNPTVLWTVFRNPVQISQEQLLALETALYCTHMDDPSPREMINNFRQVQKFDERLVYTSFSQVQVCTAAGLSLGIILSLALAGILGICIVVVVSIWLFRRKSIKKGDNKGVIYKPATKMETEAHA
# hCA I, sequence (P00915 whole entry): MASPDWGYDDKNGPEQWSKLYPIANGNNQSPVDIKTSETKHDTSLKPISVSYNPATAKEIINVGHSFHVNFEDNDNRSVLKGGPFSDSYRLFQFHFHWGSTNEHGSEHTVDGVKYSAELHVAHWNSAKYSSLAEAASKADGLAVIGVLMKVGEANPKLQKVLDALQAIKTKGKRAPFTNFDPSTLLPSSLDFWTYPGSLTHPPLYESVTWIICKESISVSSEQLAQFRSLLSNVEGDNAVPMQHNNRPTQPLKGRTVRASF
Structure (SMILES),Selectivity analysis hCA II/IX (hCA IX),Ki (hCA I),Ki (hCA IX),Selectivity analysis hCA I/IX (hCA IX),Ki (hCA XII),Selectivity analysis hCA I/XII (hCA XII),Selectivity analysis hCA II/XII (hCA XII),Ki (hCA II)
"NNC(=O)CSc1nc2ccccc2c(=O)n1CCc1ccc(S(N)(=O)=O)cc1 [Compound 3, 4-(2-(2-((2-hydrazineyl-2-oxoethyl)thio)-4-oxoquinazolin-3(4H)-yl)ethyl)benzenesulfonamide]",0.31,–,–,–,–,–,–,–
"NS(=O)(=O)c1ccc(CCn2c(SCC(=O)NN=Cc3cccc(O)c3)nc3ccccc3c2=O)cc1 [Compound 6, 4-(2-(2-((2-(2-(3-Hydroxybenzylidene)hydrazineyl)-2-oxoethyl)thio)-4-oxoquinazolin-3(4H)-yl)ethyl)benzenesulfonamide]",2.31,957 nM,38.9 nM,24.60,34.7 nM,27.58,2.60,90.1 nM
"NS(=O)(=O)c1ccc(CCn2c(SCC(=O)NN=Cc3ccc(O)cc3)nc3ccccc3c2=O)cc1 [Compound 7, 4-(2-(2-((2-(2-(4-Hydroxybenzylidene)hydrazineyl)-2-oxoethyl)thio)-4-oxoquinazolin-3(4H)-yl)ethyl)benzenesulfonamide]",1.23,665 nM,62.6 nM and 62.2 nM,10.68,19.5 nM,34.08,3.92,76.4 nM
"COc1ccc(C=NNC(=O)CSc2nc3ccccc3c(=O)n2CCc2ccc(S(N)(=O)=O)cc2)cc1 [Compound 10, 4-(2-(2-((2-(2-(4-Methoxybenzylidene)hydrazineyl)-2-oxoethyl)thio)-4-oxoquinazolin-3(4H)-yl)ethyl)benzenesulfonamide]",1.68,558 nM,49.7 nM,11.23,46.5 nM,12.00,1.79,83.4 nM
"COc1ccc(C=NNC(=O)CSc2nc3ccccc3c(=O)n2CCc2ccc(S(N)(=O)=O)cc2)c(OC)c1 [Compound 11, 4-(2-(2-((2-(2-(2,4-Dimethoxybenzylidene)hydrazineyl)-2-oxoethyl)thio)-4-oxoquinazolin-3(4H)-yl)ethyl)benzenesulfonamide]",–,2300 nM,52.7 nM,43.60,74.3 nM,30.928,0.68,50.9 nM
"COc1ccc(C=NNC(=O)CSc2nc3ccccc3c(=O)n2CCc2ccc(S(N)(=O)=O)cc2)cc1OC [Compound 12, 4-(2-(2-((2-(2-(3,4-Dimethoxybenzylidene)hydrazineyl)-2-oxoethyl)thio)-4-oxoquinazolin-3(4H)-yl)ethyl)benzenesulfonamide]",2.94,1060 nM,88.3 nM,11.98,69.2 nM,15.289,3.75,260 nM
"COc1cc(C=NNC(=O)CSc2nc3ccccc3c(=O)n2CCc2ccc(S(N)(=O)=O)cc2)cc(OC)c1OC [Compound 13, 4-(2-(4-Oxo-2-((2-Oxo-2-(2-(3,4,5-trimethoxybenzylidene)hydrazineyl)ethyl)thio)quinazolin-3(4H)-yl)ethyl)benzenesulfonamide]",5.38,1980 nM,124 nM,16.05,91.5 nM,21.66,7.27,665 nM
"COc1cc(C=NNC(=O)CSc2nc3ccccc3c(=O)n2CCc2ccc(S(N)(=O)=O)cc2)ccc1O [Compound 14, 4-(2-(2-((2-(2-(4-Hydroxy-3-methoxybenzylidene)hydrazineyl)-2-oxoethyl)thio)-4-oxoquinazolin-3(4H)-yl)ethyl)benzenesulfonamide]",0.50,857 nM,60.1 nM,14.25,14.2 nM,60.35,2.09,29.7 nM
"NS(=O)(=O)c1ccc(CCn2c(SCC(=O)NN=Cc3ccc4c(c3)OCO4)nc3ccccc3c2=O)cc1 [Compound 15, 4-(2-(2-((2-(2-(Benzo[d][1,3]dioxol-5-ylmethylene)hydrazineyl)-2-oxoethyl)thio)-4-oxoquinazolin-3(4H)-yl)ethyl)benzenesulfonamide]",6.10,692 nM,16.5 nM,41.95,52.8 nM,13.11,1.91,101 nM
"COc1ccc(C(C)=NNC(=O)CSc2nc3ccccc3c(=O)n2CCc2ccc(S(N)(=O)=O)cc2)cc1OC [Compound 19, 4-(2-(2-((2-(2-(1-(3,4-Dimethoxyphenyl)ethylidene)hydrazineyl)-2-oxoethyl)thio)-4-oxoquinazolin-3(4H)-yl)ethyl)benzenesulfonamide]",4.70,825 nM,40.3 nM,20.46,68.1 nM,12.108,2.77,189 nM
"COc1ccc(OC)c(C(C)=NNC(=O)CSc2nc3ccccc3c(=O)n2CCc2ccc(S(N)(=O)=O)cc2)c1 [Compound 20, 4-(2-(2-((2-(2-(1-(2,5-Dimethoxyphenyl)ethylidene)hydrazineyl)-2-oxoethyl)thio)-4-oxoquinazolin-3(4H)-yl)ethyl)benzenesulfonamide]",7.77,1690 nM,29.4 nM,57.65,79.9 nM,21.21,2.86,228 nM
"COc1cc(OC)cc(C(C)=NNC(=O)CSc2nc3ccccc3c(=O)n2CCc2ccc(S(N)(=O)=O)cc2)c1 [Compound 21, 4-(2-(2-((2-(2-(1-(3,5-Dimethoxyphenyl)ethylidene)hydrazineyl)-2-oxoethyl)thio)-4-oxoquinazolin-3(4H)-yl)ethyl)benzenesulfonamide]",2.48,1160 nM,52.7 nM,21.95,58 nM,19.95,2.25,131 nM
"COc1cc(C(C)=NNC(=O)CSc2nc3ccccc3c(=O)n2CCc2ccc(S(N)(=O)=O)cc2)cc(OC)c1OC [Compound 22, 4-(2-(4-Oxo-2-((2-oxo-2-(2-(1-(3,4,5-trimethoxyphenyl)ethylidene)hydrazineyl)ethyl)thio)quinazolin-3(4H)-yl)ethyl)benzenesulfonamide]",1.80,2310 nM,184 nM,12.52,85.2 nM,27.09,3.90,333 nM
